# Experimental data from patent US10836708B2, “Process for the synthesis of (s) 3-amino-4-(difluoromethylenyl)cyclopent-1-ene-1-carboxylic acid” (NORTHWESTERN UNIVERSITY, priority 2018, dated 2020).
# What was measured:
# [1] = with prolonged use; cited from earlier work
# [2] = system: multiple GABA receptors; details: cited from earlier work
# [3] = system: γ-aminobutyric acid aminotransferase (GABA-AT); details: statement in the background section; cited from earlier work
# [4] = system: aspartate aminotransferase; details: off-target aminotransferase enzyme; cited from earlier work
# [5] = system: release of dopamine in the corpus striatum; details: rats; after exposure to cocaine or nicotine; compared with previous inhibitors of GABA-AT; cited from earlier work
# [6] = system: various microsomal cytochrome P450 enzymes; details: cited from earlier work
# [7] = system: alanine aminotransferase; details: off-target aminotransferase enzyme; cited from earlier work
# [8] = target: hERG potassium ion channel (Homo sapiens, UniProt Q12809); details: cited from earlier work
# Chain of hERG potassium ion channel (Q12809 whole entry): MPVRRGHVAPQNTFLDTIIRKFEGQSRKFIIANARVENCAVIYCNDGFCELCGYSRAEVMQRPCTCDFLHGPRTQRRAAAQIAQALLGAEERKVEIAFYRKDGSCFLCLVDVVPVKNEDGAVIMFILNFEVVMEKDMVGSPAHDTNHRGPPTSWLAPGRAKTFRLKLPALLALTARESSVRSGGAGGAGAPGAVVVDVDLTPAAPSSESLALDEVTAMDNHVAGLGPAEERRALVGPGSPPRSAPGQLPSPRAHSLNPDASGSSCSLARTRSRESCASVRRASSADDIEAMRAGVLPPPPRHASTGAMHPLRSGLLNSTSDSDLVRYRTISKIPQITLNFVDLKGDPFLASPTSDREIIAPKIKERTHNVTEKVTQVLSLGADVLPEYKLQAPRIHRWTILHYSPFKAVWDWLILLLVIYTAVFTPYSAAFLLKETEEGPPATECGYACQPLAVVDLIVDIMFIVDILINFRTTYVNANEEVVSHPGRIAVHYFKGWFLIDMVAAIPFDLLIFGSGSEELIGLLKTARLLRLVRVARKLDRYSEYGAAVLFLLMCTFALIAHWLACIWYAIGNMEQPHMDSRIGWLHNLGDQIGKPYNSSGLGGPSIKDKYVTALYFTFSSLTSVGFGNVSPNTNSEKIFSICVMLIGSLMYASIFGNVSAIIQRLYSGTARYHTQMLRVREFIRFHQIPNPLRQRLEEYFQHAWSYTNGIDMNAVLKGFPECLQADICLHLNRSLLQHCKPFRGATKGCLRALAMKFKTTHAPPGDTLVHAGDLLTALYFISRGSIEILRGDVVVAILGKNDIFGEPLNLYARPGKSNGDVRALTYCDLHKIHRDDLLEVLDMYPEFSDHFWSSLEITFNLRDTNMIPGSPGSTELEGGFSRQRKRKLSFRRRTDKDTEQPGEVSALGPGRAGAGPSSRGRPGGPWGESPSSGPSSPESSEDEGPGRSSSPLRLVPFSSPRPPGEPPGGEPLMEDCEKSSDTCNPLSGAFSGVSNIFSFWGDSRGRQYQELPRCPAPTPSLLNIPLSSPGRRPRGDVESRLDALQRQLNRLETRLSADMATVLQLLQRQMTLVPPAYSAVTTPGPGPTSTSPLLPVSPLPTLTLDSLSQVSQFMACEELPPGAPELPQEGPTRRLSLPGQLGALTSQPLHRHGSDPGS
SMILES,"retinal damage, share of patients [1]",inhibition of multiple GABA receptors [2],inhibitor of GABA-AT [3],melting point [°C],inhibition of aspartate aminotransferase [4],suppressing the release of dopamine in the corpus striatum [5],inhibition of various microsomal cytochrome P450 enzymes [6],inhibition of alanine aminotransferase [7],inhibition of the hERG potassium ion channel [8]
"C=CC(N)CCC(=O)O (stereo not shown) [Vigabatrin, 4-Aminohex-5-enoic acid]",25-40 % of patients,inhibits,inhibitor,,,,,,
O=C1N[C@@H]2C(=C(F)F)C[C@H]1[C@H]2Br,,,,139 to 141,,,,,
N[C@H]1C=C(C(=O)O)CC1=C(F)F [(S)-3-amino-4-(difluoromethylenyl)cyclopent-1-ene-1-carboxylic acid],,,inhibitor,,does not inhibit,superior,does not inhibit,does not inhibit,does not inhibit
